Data: US20240358668A1, “METHODS AND CO[…] AM[…] CARD[…] USING (R)-2-AMINO-3-PH[…]” (AXSOME THERAPEUTICS, INC., priority 2021, published 2024)

Tested on: participants with narcolepsy or OSA
Assay: 1-year OLE study: clinical laboratory assessments (total cholesterol, triglycerides, glucose), OLE baseline to week 40
Type: in vivo, human
Method: A 1-year open-label extension (OLE) study was performed with 374 participants to examined whether clinically significant weight loss (≥5%) in this population had favorable effects on biomarkers of cardiovascular risk compared to no such weight loss. The study measured changes in weight and BP (parent study baseline to OLE week 40) and clinical laboratory assessments (OLE baseline to week 40) in participants with narcolepsy (n=124) or OSA (n=250) who received solriamfetol at doses of 75, 150, or 300 mg/d.
We evaluated changes in weight and BP (parent study baseline to OLE week 40) and clinical laboratory assessments (OLE baseline to week 40) in participants with narcolepsy (n=124) or OSA (n=250) from the OLE study.

[1] = Weight loss <5% at Week 40, 75 mg/d
[2] = Weight loss <5% at Week 40, 150 mg/d
[3] = Weight loss <5% at Week 40, 300 mg/d
[4] = Weight loss <5% at Week 40, all doses
[5] = Weight loss ≥5% at Week 40, 75 mg/d
[6] = Weight loss ≥5% at Week 40, 150 mg/d
[7] = Weight loss ≥5% at Week 40, 300 mg/d
[8] = Weight loss ≥5% at Week 40, all doses

NC(=O)OC[C@H](N)Cc1ccccc1 [Solriamfetol, (R)-2-amino-3-phenylpropyl carbamate]
Glucose Change - Wk 40, Mean (SD) [1]: −0.1 (3.0) mmol/L
Glucose Change - Wk 40, Median [1]: 0.2 mmol/L
Glucose category High, Week 40 [1]: 16(76.2) n (%)
Glucose category Low, Week 40 [1]: 0 n (%)
Glucose category Normal, Week 40 [1]: 5(23.8) n (%)
TC Change - Wk 40, Mean (SD) [1]: −0.1 (0.7) mmol/L
TC Change - Wk 40, Median [1]: 0.2 mmol/L
TG Change - Wk 40, Mean (SD) [1]: 0.2 (0.9) mmol/L
TG Change - Wk 40, Median [1]: -0.1 mmol/L
Total cholesterol category High, Week 40 [1]: 8(38.1) n (%)
Total cholesterol category Low, Week 40 [1]: 0 n (%)
Total cholesterol category Normal, Week 40 [1]: 13(61.9) n (%)
Triglycerides category High, Week 40 [1]: 11(52.4) n (%)
Triglycerides category Low, Week 40 [1]: 0 n (%)
Triglycerides category Normal, Week 40 [1]: 10(47.6) n (%)
Glucose Change - Wk 40, Mean (SD) [2]: −0.1 (1.1) mmol/L
Glucose Change - Wk 40, Median [2]: -0.1 mmol/L
Glucose category High, Week 40 [2]: 47(46.1) n (%)
Glucose category Low, Week 40 [2]: 0 n (%)
Glucose category Normal, Week 40 [2]: 55(53.9) n (%)
TC Change - Wk 40, Mean (SD) [2]: 0.1 (0.7) mmol/L
TC Change - Wk 40, Median [2]: 0.1 mmol/L
TG Change - Wk 40, Mean (SD) [2]: −0.1 (1.0) mmol/L
TG Change - Wk 40, Median [2]: -0.0 mmol/L
Total cholesterol category High, Week 40 [2]: 46(44.2) n (%)
Total cholesterol category Low, Week 40 [2]: 0 n (%)
Total cholesterol category Normal, Week 40 [2]: 58(55.8) n (%)
Triglycerides category High, Week 40 [2]: 39(37.5) n (%)
Triglycerides category Low, Week 40 [2]: 0 n (%)
Triglycerides category Normal, Week 40 [2]: 65(62.5) n (%)
Glucose Change - Wk 40, Mean (SD) [3]: −0.1 (1.9) mmol/L
Glucose Change - Wk 40, Median [3]: 0.0 mmol/L
Glucose category High, Week 40 [3]: 69(48.9) n (%)
Glucose category Low, Week 40 [3]: 0 n (%)
Glucose category Normal, Week 40 [3]: 72(51.1) n (%)
TC Change - Wk 40, Mean (SD) [3]: 0.1 (0.6) mmol/L
TC Change - Wk 40, Median [3]: 0.100 mmol/L
TG Change - Wk 40, Mean (SD) [3]: 0.0 (0.7) mmol/L
TG Change - Wk 40, Median [3]: -0.1 mmol/L
Total cholesterol category High, Week 40 [3]: 46(31.9) n (%)
Total cholesterol category Low, Week 40 [3]: 0 n (%)
Total cholesterol category Normal, Week 40 [3]: 98(68.1) n (%)
Triglycerides category High, Week 40 [3]: 50(34.7) n (%)
Triglycerides category Low, Week 40 [3]: 0 n (%)
Triglycerides category Normal, Week 40 [3]: 94(65.3) n (%)
Glucose Change - Wk 40, Mean (SD) [4]: −0.1 (1.8) mmol/L
Glucose Change - Wk 40, Median [4]: -0.0 mmol/L
Glucose category High, Week 40 [4]: 132(50.0) n (%)
Glucose category Low, Week 40 [4]: 0 n (%)
Glucose category Normal, Week 40 [4]: 132(50.0) n (%)
TC Change - Wk 40, Mean (SD) [4]: 0.1 (0.6) mmol/L
TC Change - Wk 40, Median [4]: 0.100 mmol/L
TG Change - Wk 40, Mean (SD) [4]: −0.0 (0.9) mmol/L
TG Change - Wk 40, Median [4]: -0.0 mmol/L
Total cholesterol category High, Week 40 [4]: 100(37.2) n (%)
Total cholesterol category Low, Week 40 [4]: 0 n (%)
Total cholesterol category Normal, Week 40 [4]: 169(62.8) n (%)
Triglycerides category High, Week 40 [4]: 100(37.2) n (%)
Triglycerides category Low, Week 40 [4]: 0 n (%)
Triglycerides category Normal, Week 40 [4]: 169(62.8) n (%)
Glucose Change - Wk 40, Mean (SD) [5]: -0.5 mmol/L
Glucose Change - Wk 40, Median [5]: -0.5 mmol/L
Glucose category High, Week 40 [5]: 1(100) n (%)
Glucose category Low, Week 40 [5]: 0 n (%)
Glucose category Normal, Week 40 [5]: 0 n (%)
TC Change - Wk 40, Mean (SD) [5]: 1.1 mmol/L
TC Change - Wk 40, Median [5]: 1.1 mmol/L
TG Change - Wk 40, Mean (SD) [5]: 0.3 mmol/L
TG Change - Wk 40, Median [5]: 0.3 mmol/L
Total cholesterol category High, Week 40 [5]: 0 n (%)
Total cholesterol category Low, Week 40 [5]: 0 n (%)
Total cholesterol category Normal, Week 40 [5]: 1(100) n (%)
Triglycerides category High, Week 40 [5]: 0 n (%)
Triglycerides category Low, Week 40 [5]: 0 n (%)
Triglycerides category Normal, Week 40 [5]: 1(100) n (%)
Glucose Change - Wk 40, Mean (SD) [6]: −0.2 (0.8) mmol/L
Glucose Change - Wk 40, Median [6]: -0.2 mmol/L
Glucose category High, Week 40 [6]: 7(31.8) n (%)
Glucose category Low, Week 40 [6]: 0 n (%)
Glucose category Normal, Week 40 [6]: 15(68.2) n (%)
TC Change - Wk 40, Mean (SD) [6]: 0.2 (0.5) mmol/L
TC Change - Wk 40, Median [6]: 0.2 mmol/L
TG Change - Wk 40, Mean (SD) [6]: −0.1 (0.4) mmol/L
TG Change - Wk 40, Median [6]: -0.2 mmol/L
Total cholesterol category High, Week 40 [6]: 4(18.2) n (%)
Total cholesterol category Low, Week 40 [6]: 0 n (%)
Total cholesterol category Normal, Week 40 [6]: 18(81.8) n (%)
Triglycerides category High, Week 40 [6]: 6(27.3) n (%)
Triglycerides category Low, Week 40 [6]: 0 n (%)
Triglycerides category Normal, Week 40 [6]: 16(72.7) n (%)
Glucose Change - Wk 40, Mean (SD) [7]: −0.2 (1.5) mmol/L
Glucose Change - Wk 40, Median [7]: -0.1 mmol/L
Glucose category High, Week 40 [7]: 19(26.0) n (%)
Glucose category Low, Week 40 [7]: 0 n (%)
Glucose category Normal, Week 40 [7]: 54(74.0) n (%)
TC Change - Wk 40, Mean (SD) [7]: 0.2 (0.6) mmol/L
TC Change - Wk 40, Median [7]: 0.2 mmol/L
TG Change - Wk 40, Mean (SD) [7]: −0.3 (1.0) mmol/L
TG Change - Wk 40, Median [7]: -0.2 mmol/L
Total cholesterol category High, Week 40 [7]: 18(24.7) n (%)
Total cholesterol category Low, Week 40 [7]: 0 n (%)
Total cholesterol category Normal, Week 40 [7]: 55(75.3) n (%)
Triglycerides category High, Week 40 [7]: 15(20.5) n (%)
Triglycerides category Low, Week 40 [7]: 0 n (%)
Triglycerides category Normal, Week 40 [7]: 58(79.5) n (%)
Glucose Change - Wk 40, Mean (SD) [8]: −0.2 (1.4) mmol/L
Glucose Change - Wk 40, Median [8]: -0.1 mmol/L
Glucose category High, Week 40 [8]: 27(28.1) n (%)
Glucose category Low, Week 40 [8]: 0 n (%)
Glucose category Normal, Week 40 [8]: 69(71.9) n (%)
TC Change - Wk 40, Mean (SD) [8]: 0.2 (0.6) mmol/L
TC Change - Wk 40, Median [8]: 0.2 mmol/L
TG Change - Wk 40, Mean (SD) [8]: −0.2 (0.9) mmol/L
TG Change - Wk 40, Median [8]: -0.2 mmol/L
Total cholesterol category High, Week 40 [8]: 22(22.9) n (%)
Total cholesterol category Low, Week 40 [8]: 0 n (%)
Total cholesterol category Normal, Week 40 [8]: 74(77.1) n (%)
Triglycerides category High, Week 40 [8]: 21(21.9) n (%)
Triglycerides category Low, Week 40 [8]: 0 n (%)
Triglycerides category Normal, Week 40 [8]: 75(78.1) n (%)
percentage of participants with high total cholesterol (participants with weight loss, week 40 (baseline 22.3%)): 22.9%
percentage of participants with high triglycerides (participants with weight loss, week 40 (baseline 26.6%)): 21.9%
percentage of participants with high serum glucose (participants with weight loss, week 40 (baseline 36.6%)): 28.1%
percentage of participants with high total cholesterol (participants without weight loss, week 40 (baseline 32.7%)): 37.2%
percentage of participants with high triglycerides (participants without weight loss, week 40 (baseline 37.1%)): 37.2%
percentage of participants with high serum glucose (participants without weight loss, week 40 (baseline 43.3%)): 50%
